Laboratory results: patent publication US20230087361A1, “USE OF DIANTHRONE COMPOUND IN PREPARATION OF MEDICAMENT FOR PREVENTION AND/OR TREATMENT OF MYOCARDIAL ISCHEMIC DISEASE AND RELATED DISEASE THEREOF” (National Institutes for Food and Drug Control, priority 2021, published 2023)

What was measured:
[1] = test system: mice with ISO-induced myocardial ischemia; test: Serum myocardial enzyme CK-MB (ELISA) in mice with ISO-induced myocardial ischemia; format: in vivo, Kunming mice; conditions: ISO model mice; dianthrone 10 mg/kg intragastric or diltiazem 20 mg/kg intraperitoneal once a day for 10 days; serum 2 h after final ISO; n=7-10
Description: (§1) Male Kunming mice were acclimatized and randomly divided into four groups: a blank control group, an ISO model group, an ISO+diltiazem 20 mg.kg^1 positive control group, and an ISO+dianthrone 10 mgkgi group. Mice in the dianthrone group were intragastrically given the corresponding dose of dianthrone once a day, those in the diltiazem group were intraperitoneally given once a day, and those in the blank control group and the model group were given the same dose of solvent (both of which were 10 mL. kg) for 10 consecutive days. On day 4 of administration, the mice in each group were injected subcutaneously with 40 mg.kg^1 ISO once; the concentration of ISO subcutaneous injection was adjusted to 20 mg.kg^- on days 5 to 10 of administration. All mice were modeled at 2 h after administration. On the final day, the animals were treated at 2 h after ISO administration and modeling. Animal weights were recorded during the experiment. […]
(§2) Assay for biomarker for myocardial injury and myocardial enzyme: The blood was drawn from the orbit of the mouse, let stand at room temperature for 2 h, and centrifuged at 3,500 rpm for 20 min to separate the serum. The serum levels of CK-MB and cTn-T were detected according to the ELISA kit instructions.

[2] = test system: mice with ISO-induced myocardial ischemia; test: Serum biomarker for myocardial injury cTn-T (ELISA) in mice with ISO-induced myocardial ischemia; format: in vivo, Kunming mice; conditions: ISO model mice; dianthrone 10 mg/kg intragastric or diltiazem 20 mg/kg intraperitoneal once a day for 10 days; serum 2 h after final ISO; n=7-10
Description: as §1, §2

SMILES: COc1ccc([C@@H]2Sc3ccccc3N(CCN(C)C)C(=O)[C@@H]2OC(C)=O)cc1 [Diltiazem, diltiazem]
- CK-MB (serum) [1]: 7.11 ± 1.63 ng/mL
- cTn-T (serum) [2]: 273.93 ± 36.17 ng/L
